Assays:
Format in all cases: in vivo
[1] = system: upland rice (Oryza sp., var.Tebonnet, RICE); assay: Post-emerge test, crop damage upland rice; details: post-emerge, 250 g ai/ha, 14 days after application, rating scale 0-100 (0 no damage, 100 complete death)
Procedure, shortened: (§1)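 Ratings of 0-100 (no damage to complete death) were recorded 14 days after a post-emergence acetone spray. The spray was applied at 8-1000 g ai/ha and 187 l/ha with 0.25% v/v surfactant, to plants at the 2-3 leaf stage in sandy loam pots.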

[2] = system: barnyardgrass (Echinachloa crus-galli, ECC); assay: Pre-emerge test, barnyardgrass; details: 250 g ai/ha, 14 days after application, rating scale 0-100 (0 no damage, 100 complete death)
Procedure, shortened: (§2)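 Pre-emerge greenhouse screen: sow, wait 1 d, spray acetone solution (8–1000 g ai/ha, 187 l/ha), rate injury 0–100 at 14 DAT.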

[3] = system: redroot pigweed (Amaranthus retroflexus, AMR); assay: Pre-emerge test, redroot pigweed; details: 250 g ai/ha, 14 days after application, rating scale 0-100 (0 no damage, 100 complete death)
Procedure, shortened: as §2

[4] = system: soybean (Glycine max L., var. Pella 86, SOY); assay: Post-emerge test, crop damage soybean; details: post-emerge, 250 g ai/ha, 14 days after application, rating scale 0-100 (0 no damage, 100 complete death)
Procedure, shortened: as §1

[5] = system: large crabgrass (Digitaria sanguinalis, DIS); assay: Post-emerge test, large crabgrass; details: 250 g ai/ha, 14 days after application, rating scale 0-100 (0 no damage, 100 complete death)
Procedure, shortened: as §1

[6] = system: lambsquarters (Chenopodium album, CHA); assay: Pre-emerge test, lambsquarters; details: 250 g ai/ha, 14 days after application, rating scale 0-100 (0 no damage, 100 complete death)
Procedure, shortened: as §2

[7] = system: cocklebur (Xanthium strumariunt, XAS); assay: Pre-emerge test, cocklebur; details: 250 g ai/ha, 14 days after application, rating scale 0-100 (0 no damage, 100 complete death)
Procedure, shortened: as §2

[8] = system: sicklepod (Cassia obtusifolia, CAO); assay: Post-emerge test, sicklepod; details: 250 g ai/ha, 14 days after application, rating scale 0-100 (0 no damage, 100 complete death)
Procedure, shortened: as §1

[9] = system: green foxtail (Setaria viridis, SEV); assay: Pre-emerge test, green foxtail; details: 250 g ai/ha, 14 days after application, rating scale 0-100 (0 no damage, 100 complete death)
Procedure, shortened: as §2

[10] = system: soybean (Glycine max L., var. Pella 86, SOY); assay: Pre-emerge test, crop damage soybean; details: pre-emerge, 250 g ai/ha, 14 days after application, rating scale 0-100 (0 no damage, 100 complete death)
Procedure, shortened: (§3)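 Pots (10 cm, sandy loam mix) were seeded one day ahead of spraying. Test materials, dissolved in acetone, went on at 8–1000 g ai/ha in a 187 l/ha spray volume. Damage was scored 14 days later from 0 (none) to 100 (total kill).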

[11] = system: field corn (Zea mays L., var. Dekalb 535, CORN); assay: Pre-emerge test, crop damage field corn; details: pre-emerge, 250 g ai/ha, 14 days after application, rating scale 0-100 (0 no damage, 100 complete death)
Procedure, shortened: as §3

[12] = system: sicklepod (Cassia obtusifolia, CAO); assay: Pre-emerge test, sicklepod; details: 250 g ai/ha, 14 days after application, rating scale 0-100 (0 no damage, 100 complete death)
Procedure, shortened: as §2

[13] = system: common ragweed (Ambrosia artemisiifolia L., AML); assay: Post-emerge test, common ragweed; details: 250 g ai/ha, 14 days after application, rating scale 0-100 (0 no damage, 100 complete death)
Procedure, shortened: as §1

[14] = system: cocklebur (Xanthium strumariunt, XAS); assay: Post-emerge test, cocklebur; details: 250 g ai/ha, 14 days after application, rating scale 0-100 (0 no damage, 100 complete death)
Procedure, shortened: as §1

[15] = system: ivyleaf morningglory (Ipomoea hederacea, IPH); assay: Post-emerge test, ivyleaf morningglory; details: 250 g ai/ha, 14 days after application, rating scale 0-100 (0 no damage, 100 complete death)
Procedure, shortened: as §1

[16] = system: redroot pigweed (Amaranthus retroflexus, AMR); assay: Post-emerge test, redroot pigweed; details: 250 g ai/ha, 14 days after application, rating scale 0-100 (0 no damage, 100 complete death)
Procedure, shortened: as §1

[17] = system: velvetleaf (Abutilon theophrasti, ABT); assay: Post-emerge test, velvetleaf; details: 250 g ai/ha, 14 days after application, rating scale 0-100 (0 no damage, 100 complete death)
Procedure, shortened: as §1

[18] = system: upland rice (Oryza sp., var.Tebonnet, RICE); assay: Pre-emerge test, crop damage upland rice; details: pre-emerge, 250 g ai/ha, 14 days after application, rating scale 0-100 (0 no damage, 100 complete death)
Procedure, shortened: as §3

[19] = system: large crabgrass (Digitaria sanguinalis, DIS); assay: Pre-emerge test, large crabgrass; details: 250 g ai/ha, 14 days after application, rating scale 0-100 (0 no damage, 100 complete death)
Procedure, shortened: as §2

[20] = system: green foxtail (Setaria viridis, SEV); assay: Post-emerge test, green foxtail; details: 250 g ai/ha, 14 days after application, rating scale 0-100 (0 no damage, 100 complete death)
Procedure, shortened: as §1

[21] = system: wheat (Triticum aestivum); assay: Post-emerge test, crop damage wheat; details: post-emerge, 250 g ai/ha, 14 days after application, rating scale 0-100 (0 no damage, 100 complete death)
Procedure, shortened: as §1

[22] = system: common ragweed (Ambrosia artemisiifolia L., AML); assay: Pre-emerge test, common ragweed; details: 250 g ai/ha, 14 days after application, rating scale 0-100 (0 no damage, 100 complete death)
Procedure, shortened: as §2

[23] = system: lambsquarters (Chenopodium album, CHA); assay: Post-emerge test, lambsquarters; details: 250 g ai/ha, 14 days after application, rating scale 0-100 (0 no damage, 100 complete death)
Procedure, shortened: as §1

[24] = system: ivyleaf morningglory (Ipomoea hederacea, IPH); assay: Pre-emerge test, ivyleaf morningglory; details: 250 g ai/ha, 14 days after application, rating scale 0-100 (0 no damage, 100 complete death)
Procedure, shortened: as §2

[25] = system: field corn (Zea mays L., var. Dekalb 535, CORN); assay: Post-emerge test, crop damage field corn; details: post-emerge, 250 g ai/ha, 14 days after application, rating scale 0-100 (0 no damage, 100 complete death)
Procedure, shortened: as §1

[26] = system: johnsongrass (Sorghum halepense, SOH); assay: Post-emerge test, johnsongrass; details: 250 g ai/ha, 14 days after application, rating scale 0-100 (0 no damage, 100 complete death)
Procedure, shortened: as §1

[27] = system: wheat (Triticum aestivum); assay: Pre-emerge test, crop damage wheat; details: pre-emerge, 250 g ai/ha, 14 days after application, rating scale 0-100 (0 no damage, 100 complete death)
Procedure, shortened: as §3

[28] = system: johnsongrass (Sorghum halepense, SOH); assay: Pre-emerge test, johnsongrass; details: 250 g ai/ha, 14 days after application, rating scale 0-100 (0 no damage, 100 complete death)
Procedure, shortened: as §2

[29] = system: velvetleaf (Abutilon theophrasti, ABT); assay: Pre-emerge test, velvetleaf; details: 250 g ai/ha, 14 days after application, rating scale 0-100 (0 no damage, 100 complete death)
Procedure, shortened: as §2

[30] = system: barnyardgrass (Echinachloa crus-galli, ECC); assay: Post-emerge test, barnyardgrass; details: 250 g ai/ha, 14 days after application, rating scale 0-100 (0 no damage, 100 complete death)
Procedure, shortened: as §1

SMILES	Post-emerge crop damage RICE (phytotoxicity rating) [1]	Pre-emerge Herbicidal Activity ECC (phytotoxicity rating) [2]	Pre-emerge Herbicidal Activity AMR (phytotoxicity rating) [3]	Post-emerge crop damage SOY (phytotoxicity rating) [4]	Post-emerge Herbicidal Activity DIS (phytotoxicity rating) [5]	Pre-emerge Herbicidal Activity CHA (phytotoxicity rating) [6]	Pre-emerge Herbicidal Activity XAS (phytotoxicity rating) [7]	Post-emerge Herbicidal Activity CAO (phytotoxicity rating) [8]	Pre-emerge Herbicidal Activity SEV (phytotoxicity rating) [9]	Pre-emerge crop damage SOY (phytotoxicity rating) [10]	Pre-emerge crop damage CORN (phytotoxicity rating) [11]	Pre-emerge Herbicidal Activity CAO (phytotoxicity rating) [12]	Post-emerge Herbicidal Activity AML (phytotoxicity rating) [13]	Post-emerge Herbicidal Activity XAS (phytotoxicity rating) [14]	Post-emerge Herbicidal Activity IPH (phytotoxicity rating) [15]	Post-emerge Herbicidal Activity AMR (phytotoxicity rating) [16]	Post-emerge Herbicidal Activity ABT (phytotoxicity rating) [17]	Pre-emerge crop damage RICE (phytotoxicity rating) [18]	Pre-emerge Herbicidal Activity DIS (phytotoxicity rating) [19]	Post-emerge Herbicidal Activity SEV (phytotoxicity rating) [20]	also measured
CCC1C(=O)Nc2c(-c3nn(C)c(OC(F)F)c3Cl)c(F)cc3c2N1C(=O)C(C)(C)O3 (stereo not drawn) [1-61]	30	99	100	25	0	100	60	30	100	25	0	65	60	90	100	75	98	10	98	85	Post-emerge crop damage WHEAT (phytotoxicity rating) [21]: 30; Pre-emerge Herbicidal Activity AML (phytotoxicity rating) [22]: 80; Post-emerge Herbicidal Activity CHA (phytotoxicity rating) [23]: 99; Pre-emerge Herbicidal Activity IPH (phytotoxicity rating) [24]: 98; Post-emerge crop damage CORN (phytotoxicity rating) [25]: 3; Post-emerge Herbicidal Activity SOH (phytotoxicity rating) [26]: 20; Pre-emerge crop damage WHEAT (phytotoxicity rating) [27]: 15; Pre-emerge Herbicidal Activity SOH (phytotoxicity rating) [28]: 100; Pre-emerge Herbicidal Activity ABT (phytotoxicity rating) [29]: 100; Post-emerge Herbicidal Activity ECC (phytotoxicity rating) [30]: 35
CC1C(=O)N(C)c2c(-c3nn(C)c(OC(F)F)c3Cl)c(F)cc3c2N1C(=O)CO3 (stereo not drawn) [1-62]	70	90	65	0	30	100	25	35	100	10	10	50	90	65	75	99	80	50	50	60	Post-emerge crop damage WHEAT (phytotoxicity rating) [21]: 50; Pre-emerge Herbicidal Activity AML (phytotoxicity rating) [22]: 35; Post-emerge Herbicidal Activity CHA (phytotoxicity rating) [23]: 100; Pre-emerge Herbicidal Activity IPH (phytotoxicity rating) [24]: 60; Post-emerge crop damage CORN (phytotoxicity rating) [25]: 0; Post-emerge Herbicidal Activity SOH (phytotoxicity rating) [26]: 0; Pre-emerge crop damage WHEAT (phytotoxicity rating) [27]: 45; Pre-emerge Herbicidal Activity SOH (phytotoxicity rating) [28]: 90; Pre-emerge Herbicidal Activity ABT (phytotoxicity rating) [29]: 90; Post-emerge Herbicidal Activity ECC (phytotoxicity rating) [30]: 30

From patent US6770596B1, “Fused tricyclic compounds, process for their preparation, and herbicidal compositions containing them” (Ishihara Sangyo Kaisha Ltd., priority 2002, dated 2004)
